Source: ChEMBL document CHEMBL2163284, “Targeting the S1 and S3 subsite of trypsin with unnatural cationic amino acids generates antimicrobial peptides with potential for oral administration” (J Med Chem, 2012)
≈ marks a conversion by molar mass, not a printed value. Non-standard residues stand in square brackets, D forms with d. Residues, ends and D or L forms follow the SMILES beside them. *: point of attachment. Phe(4-guanidino) = N=C(N)Nc1ccc(C[C@H](N)C(=O)O)cc1; Bip = N[C@@H](Cc1ccc(-c2ccccc2)cc1)C(=O)O; Phe(4-NH2) = Nc1ccc(C[C@H](N)C(=O)O)cc1; hArg = N=C(N)NCCCC[C@H](N)C(=O)O; Agp = N=C(N)NC[C@H](N)C(=O)O; Orn = NCCC[C@H](N)C(=O)O; NHBn = c1ccc(CN*)cc1

Key:
[1] = Binding affinity to trypsin at 25 degC by isothermal calorimetry
[2] = Chemical stability assessed as half life at 1 mg/ml in presence of trypsin incubated for 24 hrs by RP-HPLC; assay type: physicochemical; settings: for t1/2: isolated protein, 24 h; for half-life at 1 mg/ml: trypsin
[3] = system: Staphylococcus aureus; assay: Antimicrobial activity against methicillin-resistant Staphylococcus aureus ATCC 33591 by serial dilution method; assay type: functional
[4] = system: Staphylococcus aureus; assay: Antimicrobial activity against Staphylococcus aureus ATCC 25923 by serial dilution method; assay type: functional
[5] = Half life in CD1 mouse stomach whole organ extracts assessed as half life at 1 mg/ml at 37 degC at pH 7.4 by HPLC; assay type: ADME, tissue-based
[6] = Half life in CD1 mouse liver whole organ extracts assessed as half life at 1 mg/ml at 37 degC by HPLC; assay type: ADME, tissue-based
[7] = Half life in CD1 mouse duodenum whole organ extracts assessed as half life at 1 mg/ml at 37 degC by HPLC; assay type: ADME, tissue-based

N=C(N)NCCC[C@H](N)C(=O)N[C@@H](Cc1ccc(-c2ccccc2)cc1)C(=O)N[C@@H](CCCN)C(=O)NCc1ccccc1 (H-Arg-[Bip]-[Orn]-NHBn)
Kd [1]: 57.2 µM
t1/2 [2]: Stable
MIC [3]: 10 µg/mL (≈ 16.6 µM)
MIC [4]: 5 µg/mL (≈ 8.32 µM)

N=C(N)NCCC[C@H](N)C(=O)N[C@@H](Cc1ccc(NC(=N)N)cc1)C(=O)N[C@@H](Cc1c[nH]c2ccccc12)C(=O)NCc1ccccc1 (H-Arg-[Phe(4-guanidino)]-Trp-NHBn)
half-life at 1 mg/ml [2]: 8 h
MIC [3]: 50 µg/mL (≈ 76.5 µM)
MIC [4]: 15 µg/mL (≈ 22.9 µM)

N=C(N)NCCC[C@H](N)C(=O)N[C@@H](Cc1ccc(-c2ccccc2)cc1)C(=O)N[C@@H](CNC(=N)N)C(=O)NCc1ccccc1 (H-Arg-[Bip]-[Agp]-NHBn)
t1/2 [2]: Stable
MIC [3]: 5 µg/mL (≈ 8.13 µM)
MIC [4]: 5 µg/mL (≈ 8.13 µM)
half-life at 1 mg/ml [5]: 11.7 h
half-life at 1 mg/ml [6]: 3.19 h
half-life at 1 mg/ml [7]: 5.39 h

N=C(N)NCCC[C@H](NC(=O)[C@H](Cc1ccc(-c2ccccc2)cc1)NC(=O)[C@@H](N)CCCN)C(=O)NCc1ccccc1 (H-[Orn]-[Bip]-Arg-NHBn)
Kd [1]: 37.2 µM
half-life at 1 mg/ml [2]: 5.1 h
MIC [3]: 25 µg/mL (≈ 41.6 µM)
MIC [4]: 15 µg/mL (≈ 25 µM)

N=C(N)NCCC[C@H](N)C(=O)N[C@@H](Cc1ccc(N)cc1)C(=O)N[C@@H](Cc1ccc(-c2ccccc2)cc1)C(=O)NCc1ccccc1 (H-Arg-[Phe(4-NH2)]-[Bip]-NHBn)
Kd [1]: 2.6 µM
t1/2 [2]: Stable
MIC [3]: 10 µg/mL (≈ 15.4 µM)
MIC [4]: 15 µg/mL (≈ 23.1 µM)

N=C(N)Nc1ccc(C[C@H](NC(=O)[C@H](Cc2ccc(-c3ccccc3)cc2)NC(=O)[C@@H](N)Cc2ccc(NC(=N)N)cc2)C(=O)NCc2ccccc2)cc1 (H-[Phe(4-guanidino)]-[Bip]-[Phe(4-guanidino)]-NHBn)
half-life at 1 mg/ml [2]: 2.2 h
MIC [3]: 5 µg/mL (≈ 6.77 µM)
MIC [4]: < 2.5 µg/mL

N=C(N)NCCC[C@H](NC(=O)[C@H](Cc1ccc(-c2ccccc2)cc1)NC(=O)[C@@H](N)CNC(=N)N)C(=O)NCc1ccccc1 (H-[Agp]-[Bip]-Arg-NHBn)
half-life at 1 mg/ml [2]: 1.4 h
MIC [3]: 10 µg/mL (≈ 16.3 µM)
MIC [4]: 10 µg/mL (≈ 16.3 µM)

N=C(N)NCCC[C@H](NC(=O)[C@H](Cc1ccc(-c2ccccc2)cc1)NC(=O)[C@@H](N)Cc1ccc(NC(=N)N)cc1)C(=O)NCc1ccccc1 (H-[Phe(4-guanidino)]-[Bip]-Arg-NHBn)
half-life at 1 mg/ml [2]: 0.5 h
MIC [3]: 5 µg/mL (≈ 7.24 µM)
MIC [4]: 5 µg/mL (≈ 7.24 µM)

N=C(N)NC[C@H](NC(=O)[C@H](Cc1ccc(-c2ccccc2)cc1)NC(=O)[C@@H](N)CNC(=N)N)C(=O)NCc1ccccc1 (H-[Agp]-[Bip]-[Agp]-NHBn)
t1/2 [2]: Stable
MIC [3]: 15 µg/mL (≈ 25.6 µM)
MIC [4]: 10 µg/mL (≈ 17 µM)

N=C(N)NCCCC[C@H](NC(=O)[C@H](Cc1ccc(-c2ccccc2)cc1)NC(=O)[C@@H](N)CCCNC(=N)N)C(=O)NCc1ccccc1 (H-Arg-[Bip]-[hArg]-NHBn)
Kd [1]: 48.4 µM
t1/2 [2]: Stable
MIC [3]: 10 µg/mL (≈ 15.2 µM)
MIC [4]: 5 µg/mL (≈ 7.61 µM)
half-life at 1 mg/ml [5]: 6.69 h
half-life at 1 mg/ml [6]: 1.07 h
half-life at 1 mg/ml [7]: 1.37 h

N=C(N)Nc1ccc(C[C@H](NC(=O)[C@H](Cc2ccc(-c3ccccc3)cc2)NC(=O)[C@@H](N)CCCCN)C(=O)NCc2ccccc2)cc1 (H-Lys-[Bip]-[Phe(4-guanidino)]-NHBn)
half-life at 1 mg/ml [2]: 5 h
MIC [3]: 5 µg/mL (≈ 7.54 µM)
MIC [4]: 5 µg/mL (≈ 7.54 µM)

N=C(N)NCCC[C@H](N)C(=O)N[C@@H](Cc1ccc(NC(=N)N)cc1)C(=O)N[C@@H](Cc1ccc(-c2ccccc2)cc1)C(=O)NCc1ccccc1 (H-Arg-[Phe(4-guanidino)]-[Bip]-NHBn)
half-life at 1 mg/ml [2]: 3.5 h
MIC [3]: 5 µg/mL (≈ 7.24 µM)
MIC [4]: 2.5 µg/mL (≈ 3.62 µM)

N=C(N)NCCC[C@H](NC(=O)[C@H](Cc1ccc(-c2ccccc2)cc1)NC(=O)[C@@H](N)CCCNC(=N)N)C(=O)NCc1ccccc1 (H-Arg-[Bip]-Arg-NHBn)
Kd [1]: 11.3 µM
half-life at 1 mg/ml [2]: 1 h
MIC [3]: 10 µg/mL (≈ 15.6 µM)
MIC [4]: 10 µg/mL (≈ 15.6 µM)
half-life at 1 mg/ml [5]: 0.167 h
half-life at 1 mg/ml [6]: 1.76 h
half-life at 1 mg/ml [7]: 0.102 h

N=C(N)NCCC[C@H](N)C(=O)N[C@@H](Cc1ccc(-c2ccccc2)cc1)C(=O)N[C@@H](Cc1ccc(NC(=N)N)cc1)C(=O)NCc1ccccc1
Kd [1]: 5.3 µM
half-life at 1 mg/ml [2]: 4.1 h
MIC [3]: 5 µg/mL (≈ 7.24 µM)
MIC [4]: 5 µg/mL (≈ 7.24 µM)

N=C(N)Nc1ccc(C[C@H](N)C(=O)N[C@@H](Cc2ccc(-c3ccccc3)cc2)C(=O)N[C@@H](CCCCN)C(=O)NCc2ccccc2)cc1 (H-[Phe(4-guanidino)]-[Bip]-Lys-NHBn)
half-life at 1 mg/ml [2]: 2.2 h
MIC [3]: 10 µg/mL (≈ 15.1 µM)
MIC [4]: 5 µg/mL (≈ 7.54 µM)

N=C(N)NCCCC[C@H](N)C(=O)N[C@@H](Cc1ccc(-c2ccccc2)cc1)C(=O)N[C@@H](CCCNC(=N)N)C(=O)NCc1ccccc1 (H-[hArg]-[Bip]-Arg-NHBn)
half-life at 1 mg/ml [2]: 1.9 h
MIC [3]: 10 µg/mL (≈ 15.2 µM)
MIC [4]: < 2.5 µg/mL

N=C(N)NCCC[C@H](N)C(=O)N[C@@H](Cc1ccc(-c2ccccc2)cc1)C(=O)N[C@@H](CCCCN)C(=O)NCc1ccccc1 (H-Arg-[Bip]-Lys-NHBn)
Kd [1]: 20 µM
half-life at 1 mg/ml [2]: 2.8 h
MIC [3]: 10 µg/mL (≈ 16.3 µM)
MIC [4]: 10 µg/mL (≈ 16.3 µM)

N=C(N)NCCC[C@H](NC(=O)[C@H](Cc1ccc(-c2ccccc2)cc1)NC(=O)[C@@H](N)CCCCN)C(=O)NCc1ccccc1 (H-Lys-[Bip]-Arg-NHBn)
Kd [1]: 11.6 µM
half-life at 1 mg/ml [2]: 1.8 h
MIC [3]: 10 µg/mL (≈ 16.3 µM)
MIC [4]: 10 µg/mL (≈ 16.3 µM)

N=C(N)NCCC[C@H](NC(=O)[C@@H](N)CCCNC(=N)N)C(=O)N[C@@H](Cc1ccc(-c2ccccc2)cc1)C(=O)NCc1ccccc1 (H-Arg-Arg-[Bip]-NHBn)
half-life at 1 mg/ml [2]: < 0.5 h
MIC [3]: 5 µg/mL (≈ 7.78 µM)
MIC [4]: 5 µg/mL (≈ 7.78 µM)

N=C(N)NCCC[C@H](NC(=O)[C@@H](N)CCCNC(=N)N)C(=O)N[C@@H](Cc1c[nH]c2ccccc12)C(=O)NCc1ccccc1 (H-Arg-Arg-Trp-NHBn)
half-life at 1 mg/ml [2]: < 0.5 h
MIC [3]: 75 µg/mL (≈ 124 µM)
MIC [4]: 25 µg/mL (≈ 41.3 µM)

NCCCC[C@H](NC(=O)[C@H](Cc1ccc(-c2ccccc2)cc1)NC(=O)[C@@H](N)CCCCN)C(=O)NCc1ccccc1 (H-Lys-[Bip]-Lys-NHBn)
Kd [1]: 21 µM
half-life at 1 mg/ml [2]: 4.5 h
MIC [3]: 15 µg/mL (≈ 25.6 µM)
MIC [4]: 25 µg/mL (≈ 42.6 µM)

N=C(N)NCCC[C@H](N)C(=O)N[C@@H](Cc1ccc(N)cc1)C(=O)N[C@@H](Cc1c[nH]c2ccccc12)C(=O)NCc1ccccc1 (H-Arg-[Phe(4-NH2)]-Trp-NHBn)
Kd [1]: 14.9 µM
t1/2 [2]: Stable
MIC [3]: > 150 µg/mL
MIC [4]: 75 µg/mL (≈ 123 µM)
